What was measured:
in vivo [1] = details: Sprague-Dawley, rat, po, 25 mg/kg
in vivo [2] = details: Sprague-Dawley, rat, iv, 5 mg/kg
in vivo [3] = details: Sprague-Dawley, rat, iv, 5 mg/kg; remark: listed apart in the source

Cmax (in vivo [1]): 15400 ng/mL
AUC(0-inf) (in vivo [2]): 16900 ng·h/mL
Cmax (in vivo [3]): 14700 ng/mL
SMILES: Cc1cn(-c2cc(NC(=O)c3ccc4c(c3)C[C@H](N(C)c3cncnc3)C4)cc(C(F)(F)F)c2)cn1
